According to publication PMC2905153 (Cell calcium, 2009):

Molecular target: CRACM1/Orai1 (Homo sapiens, UniProt Q96D31)
Assay type: cell-based

Sequence of CRACM1/Orai1 (Q96D31 whole entry): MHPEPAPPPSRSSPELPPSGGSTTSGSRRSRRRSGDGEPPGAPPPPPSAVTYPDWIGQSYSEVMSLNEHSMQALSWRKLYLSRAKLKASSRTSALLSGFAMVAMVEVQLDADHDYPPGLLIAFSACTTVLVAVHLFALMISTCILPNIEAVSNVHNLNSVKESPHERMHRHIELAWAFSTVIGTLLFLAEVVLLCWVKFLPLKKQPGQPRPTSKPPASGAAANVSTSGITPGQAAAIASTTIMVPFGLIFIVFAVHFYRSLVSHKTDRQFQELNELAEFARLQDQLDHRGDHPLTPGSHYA
Sequence of CRACM1/Orai1 (Q13586 23-685 partner): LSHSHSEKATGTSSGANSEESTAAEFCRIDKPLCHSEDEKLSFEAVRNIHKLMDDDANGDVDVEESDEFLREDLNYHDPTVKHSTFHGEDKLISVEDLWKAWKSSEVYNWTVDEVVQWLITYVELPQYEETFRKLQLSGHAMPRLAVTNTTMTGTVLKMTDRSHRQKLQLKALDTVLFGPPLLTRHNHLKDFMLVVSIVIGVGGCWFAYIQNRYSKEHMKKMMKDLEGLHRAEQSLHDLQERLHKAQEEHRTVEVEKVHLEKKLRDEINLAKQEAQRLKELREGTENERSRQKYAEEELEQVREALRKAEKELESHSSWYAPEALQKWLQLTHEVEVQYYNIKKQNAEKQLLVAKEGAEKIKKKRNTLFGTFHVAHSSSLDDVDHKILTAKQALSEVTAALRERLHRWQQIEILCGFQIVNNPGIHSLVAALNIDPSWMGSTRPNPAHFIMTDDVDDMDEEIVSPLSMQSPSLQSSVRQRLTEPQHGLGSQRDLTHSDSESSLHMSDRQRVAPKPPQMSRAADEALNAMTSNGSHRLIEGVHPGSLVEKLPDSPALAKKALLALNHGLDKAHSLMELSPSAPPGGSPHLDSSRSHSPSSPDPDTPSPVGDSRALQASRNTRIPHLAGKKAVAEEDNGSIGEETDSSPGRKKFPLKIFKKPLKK

IC50 [µM]	Substance
0.086 ± 0.021	DPB162-AE
0.17 ± 0.068	DPB163-AE
